Test results reported in US20190060257A1, “ANALGESIC COMPOUNDS” (ZENO ROYALTIES & MILESTONES, LLC, priority 2016, published 2019).

Test system: male ICR mice
Assay: Formalin Paw Test
Assay type: in vivo, mouse
Details: 30 mg/kg, intraperitoneal administration; for Early Phase: early/acute phase (0-10 minutes) after 2% formalin into hind paw; for Late Phase: late/tonic phase (10-35 minutes) after 2% formalin into hind paw
Procedure: One test compound or the vehicle was administered to each mouse in each test group (8 mice per group). Non-fasted male ICR mice weighing 23±3 g were used. Test compounds were administered at a concentration of 3 mg/kg, 10 mg/kg, 15 mg/kg, 30 mg/kg, 60 mg/kg, 100 mg/kg, 200 mg/kg or 300 mg/kg; morphine was administered at a concentration of 5 mg/kg; and acetaminophen was administered at a concentration of 200 mg/kg. The control group received the vehicle (5% DMSO/40% PEG400/20% HPbCD/Saline). After 30 or 60 minutes, a 2% formalin solution (0.02 mL) was injected into one hind paw (sub-plantar) of each mouse. Responses were measured every 5 minutes after the formalin injection for 35 minutes.
The results in Table A are for intraperitoneal administration. In Table A, ‘A’ designates <70 licks/sec, ‘B’ designates ≥70 licks/sec and <165 licks/sec, and ‘C’ designates ≥165 licks/sec.

Structure (SMILES) | Early Phase | Late Phase
NC1CC(F)(F)C1 [Compound 2] | B (‘B’ designates ≥70 licks/sec and <165 licks/sec) | B (‘B’ designates ≥70 licks/sec and <165 licks/sec)
N[C@H]1C[C@@H](O)C1 [cis-1] | B (‘B’ designates ≥70 licks/sec and <165 licks/sec) | C (‘C’ designates ≥165 licks/sec)
NC1CCC(F)(F)CC1 [Compound 9] | A (‘A’ designates <70 licks/sec) | A (‘A’ designates <70 licks/sec)
NC1CCCC(C(F)(F)F)C1 (centres unmarked) [Compound 10] | A (‘A’ designates <70 licks/sec) | A (‘A’ designates <70 licks/sec)
NC12CCC(C(F)(F)F)(CC1)CC2 [Compound 18] | B (‘B’ designates ≥70 licks/sec and <165 licks/sec) | B (‘B’ designates ≥70 licks/sec and <165 licks/sec)
NC1CCC(F)(F)C1 (centres unmarked) [Compound 8] | B (‘B’ designates ≥70 licks/sec and <165 licks/sec) | B (‘B’ designates ≥70 licks/sec and <165 licks/sec)
NC12CC3CC(C1)CC(C(F)(F)F)(C3)C2 [Compound 20] | A (‘A’ designates <70 licks/sec) | A (‘A’ designates <70 licks/sec)
NC1CCCCCC1 [Compound 11] | A (‘A’ designates <70 licks/sec) | C (‘C’ designates ≥165 licks/sec)
NC1CC2(C1)CC(O)C2 (centres unmarked) [Compound 14] | B (‘B’ designates ≥70 licks/sec and <165 licks/sec) | B (‘B’ designates ≥70 licks/sec and <165 licks/sec)
NC1CC2(C1)CC(N)C2 (centres unmarked) [Compound 13] | B (‘B’ designates ≥70 licks/sec and <165 licks/sec) | B (‘B’ designates ≥70 licks/sec and <165 licks/sec)
N[C@H]1C[C@H](O)C1 [trans-1] | B (‘B’ designates ≥70 licks/sec and <165 licks/sec) | C (‘C’ designates ≥165 licks/sec)
NCC1CC(F)(F)C1 [Compound 6] | B (‘B’ designates ≥70 licks/sec and <165 licks/sec) | B (‘B’ designates ≥70 licks/sec and <165 licks/sec)
CC12CC3CC(C)(C1)CC(N)(C3)C2 [Compound 19] | A (‘A’ designates <70 licks/sec) | A (‘A’ designates <70 licks/sec)
